Test results as given in patent US10183973B2, “Solvate of cyclic peptide compound, preparation method for same, and uses thereof” (SHANGHAI TECHWELL BIOPHARMACEUTICAL CO., LTD, priority 2014, dated 2019).
*1 amine or outer side, *2 acyl side, *3 side chain or, on linkers, in order; H or OH if unused. Where a SMILES comes first, the peptide text is derived from it. Bridges are numbered along the chain shown (N, C = ends). [ ]: non-standard residue; d: D form. The star is where a group is joined. hTyr(3S-OH,4S-OH,3'-OSO3H) = N[C@H](C(=O)O)[C@H](O)[C@@H](O)c1ccc(O)c(OS(=O)(=O)O)c1; Orn(4R-OH,5R-OH) = O=C([C@H](C[C@@H](O)[C@@H](O)N[*:3])N[*:1])[*:2]; Pro(3S-OH,4S-Me) = C[C@H]1CN[C@H](C(=O)O)[C@H]1O; X1 = CCCCCOc1ccc(-c2cc(-c3ccc(C(=O)*)cc3)no2)cc1; Gln(3R-OH) = NC(=O)C[C@@H](O)[C@H](N)C(=O)O; Hyp = O=C(O)[C@@H]1C[C@@H](O)CN1

Assay: Purity and stability test (HPLC purity after sealed storage at 25° C. for 30 days)
Type: physicochemical
Settings: for Purity of initial sample: HPLC purity before storage (baseline of stability test); for Purity of sample after stored ar 25° C. for 30 days: sealed, HPLC purity
Source text: High performance liquid chromatography (HPLC) is a common method for detecting the purity of a compound, wherein a liquid is used as the mobile phase and a high-pressure transfusion system is used for pumping the mobile phase, such as single solvents with different polarities or a mixture of solvents at different proportions, buffers, into a column packed with a stationary phase. Each component is separated in the column, and then enters into a detector for detection, thereby analyzing a sample. In the present invention, HPLC is used for determining the purity of the compound of formula I and studying the stability of a sample.
HPLC detection method is listed as follows:
Analysis Column: YMC-ODS 250×4.6 mm, 5 μm;
Mobile phase: acetonitrile:phosphate buffer (pH 3.0)=45:70;
Column temperature: 35° C.;
Diluent: aqueous phosphate buffer;
Detection wavelength: 210 nm;
In this Example, the purity and stability of samples obtained in Comparative Examples and Examples were compared. The used method is described as follows:
The solvate of the compound of formula I prepared in Examples 2, the crystal of B82 type obtained in Comparative Example 1 and amorphous solids obtained in Example 1 were taken and sealed at 25° C. for 30 days respectively. And then the content of impurities in the sample was analyzed. Results for comparing the stability of the solvate of the compound of formula I according to the present invention, the crystal of B82 type and the amorphous solid are shown in the following table: […]

Compound	Purity of initial sample [%]	Purity of sample after stored ar 25° C. for 30 days [%]	stability compared with crystal of B82 type (solid-state stability, in words)
CCCCCOc1ccc(-c2cc(-c3ccc(C(=O)N[C@H]4C[C@@H](O)[C@@H](O)NC(=O)[C@@H]5[C@@H](O)[C@@H](C)CN5C(=O)[C@H]([C@H](O)CC(N)=O)NC(=O)[C@H]([C@H](O)[C@@H](O)c5ccc(O)c(OS(=O)(=O)[O-])c5)NC(=O)[C@@H]5C[C@@H](O)CN5C(=O)[C@H]([C@@H](C)O)NC4=O)cc3)no2)cc1.[Na+] [Amorphous solids, Micafungin Sodium] (X1-[Orn(4R-OH,5R-OH)]T[Hyp][hTyr(3S-OH,4S-OH,3'-OSO3H)][Gln(3R-OH)][Pro(3S-OH,4S-Me)]; lactam 1-C)	99.38	89.27	–
CCCCCOc1ccc(-c2cc(-c3ccc(C(=O)N[C@H]4C[C@@H](O)[C@@H](O)NC(=O)[C@@H]5[C@@H](O)[C@@H](C)CN5C(=O)[C@H]([C@H](O)CC(N)=O)NC(=O)[C@H]([C@H](O)[C@@H](O)c5ccc(O)c(OS(=O)(=O)[O-])c5)NC(=O)[C@@H]5C[C@@H](O)CN5C(=O)[C@H]([C@@H](C)O)NC4=O)cc3)no2)cc1.[Na+] [Crystal of B82 type, Micafungin Sodium] (X1-[Orn(4R-OH,5R-OH)]T[Hyp][hTyr(3S-OH,4S-OH,3'-OSO3H)][Gln(3R-OH)][Pro(3S-OH,4S-Me)]; lactam 1-C)	99.50	96.98	–
CCCCCOc1ccc(-c2cc(-c3ccc(C(=O)N[C@H]4C[C@@H](O)[C@@H](O)NC(=O)[C@@H]5[C@@H](O)[C@@H](C)CN5C(=O)[C@H]([C@H](O)CC(N)=O)NC(=O)[C@H]([C@H](O)[C@@H](O)c5ccc(O)c(OS(=O)(=O)[O-])c5)NC(=O)[C@@H]5C[C@@H](O)CN5C(=O)[C@H]([C@@H](C)O)NC4=O)cc3)no2)cc1.[Na+] [Solvate of the compound of formula I, Sodium 5-[(1S,2S)-2-[(3S,6S,9S,11R,15S,18S,20R,21R,24S,25S,26S)-3-[(R)-2-carbamoyl-1-hydroxyethyl]-11,20,21,25-tetrahydroxy-15-[(R)-1-hydroxyethyl]-26-methyl-2,5,8,14,17,23-hexaoxo-18-[4-[5-(4-pentoxyphenyl)isoxazol-3-yl]benzoylamino]-1,4,7,13,16,22-hexaazatricyclo[22.3.0.0^9,13]heptacosan-6-yl]-1,2-dihydroxyethyl]-2-hydroxy phenyl sulfate] (X1-[Orn(4R-OH,5R-OH)]T[Hyp][hTyr(3S-OH,4S-OH,3'-OSO3H)][Gln(3R-OH)][Pro(3S-OH,4S-Me)]; lactam 1-C)	99.55	99.50	better than that of the crystal of B82 type
